Measurements from ChEMBL document CHEMBL1158873, “Chemistry of Fijian Plants. 13. 1 Floribundal, a Nonglycosidic Bisiridoid, and Six Novel Fatty Esters of -Amyrin from Scaevola floribunda” (J Nat Prod, 1997).

System: Artemia
Assay: Toxicity against brine shrimp
Format: organism-based
Conditions: in vivo

COC(=O)C[C@@H]1C(C(=O)O[C@H]2C[C@@H]3C(C(=O)OC)=CO[C@@H](O)[C@@H]3[C@H]2C)=CO[C@@H](C)[C@H]1C=O [FLORIBUNDAL]
Activity: Non-toxic
